Experiment [1] concerns Donor 3 COP T-cell lines (165-B6C, 165-C7C, 165-D3C, 165-F3C, 165-F6C). The experiment in a line: MHC DR restriction testing (ATP proliferation with autologous and partially HLA-DR matched APC), Donor 3 COP T-cell lines. The format is cell-based, human. Particulars: 20 μg/mL. The method, then:
MHC DR restriction testing of cell lines was carried out by measuring the proliferation response of the cell lines as described above in the presence of an array of APC selected based on the known HLA-DR loci of the original PBMC donor for the cell line tested, including autologous APC (B-LCL). The donors used are described in Table 2.
To define the MHC molecule used to present antigen to GA specific T cell lines, GA specific responses were measured in the presence of autologous APC and in the presence of APC matching one of the T cell donor's HLA-DR alleles. Therefore at least 3 APC were used in each experiment: autologous APC, APC matching DR allele 1 but not allele 2 and a third APC matching allele 2 but not allele 1. In some experiments a fourth APC B-LCL was used. A no antigen negative control was used. APC were inactivated by incubation with 50 ug/mL mitomycin C. Following inactivation, cells were washed three times to remove mitomycin C and suspended in X-VIVO 15 medium at 1×10^6 cells per mL. GA was added to the cell suspension to a final concentration of 20-60 μg/mL. The cells were incubated with antigen for 1 hour at 37° C. to allow antigen uptake and binding. The cell suspension was then centrifuged to pellet the cells and the cell pellet was washed once with medium. APC were adjusted to 2×10^5 cells per mL in X-VIVO 15 medium and added to opaque 96-well plates at 100 μL per well. T-cell suspensions of 2-4×10^5 cells per mL (unless otherwise specified) were added to the 96-well plates at 100 μL per well and the cultures incubated 4 days before measuring cell numbers using CellTiter Glo® (to evaluate proliferation).
Alternatively, APC were not pulsed. Instead, each well contained 10 ug/mL antigen, 50 μl APC and 100 μL of T cells.
After incubating for 4 days at 37° C. (5% CO2), 100 μL were removed from each well, combined with 100 μL CellTiterGlo reagent, and luminescence was measured using a Packard Fusion. Results were expressed in relative light units (RLU).
As described in the Methods, T-cell lines were tested for MHC restriction by measuring proliferation following incubation with APC. Mitomycin-treated autologous APC, and test APC, e.g., from donors having at least one HLA-DR match with the original PBMC donor were employed. The values in the data tables below are in RLU.
Donor 3 T-cell line 165-B6C was assayed for proliferation, using mitomycin-treated APC from Donors 3, 5, and 6 that had been incubated in the presence or the absence of 20 μg/mL COP. T-cell line 165-B6C had been restimulated six times (not including the initial stimulation) with antigen before the MHC restriction assay was carried out. The data, shown in Table 68 and FIG. 12A, indicate that […] is restricted by HLA-DRβ1*11.
Donor 3 T-cell line 165-C7C was assayed for proliferation, using mitomycin-treated APC from Donors 3, 5, and 6 that had been incubated in the presence or the absence of 20 μg/mL COP. T-cell line 165-C7C had been restimulated five times (not including the initial stimulation) with antigen before the MHC restriction assay was carried out. The data, shown in Table 69 and FIG. 12B, indicate that […] is restricted by HLA-DRβ1*11.
T-cell line 165-D3C had been restimulated six times (not including the initial stimulation) with antigen before the MHC restriction assay was carried out. The data, shown in Table 70 and FIG. 13A, indicate that 165-D3Cis restricted by HLA-DRβ1*1501.
T-cell line 165-F3C had been restimulated eight times (not including the initial stimulation) with antigen before the MHC restriction assay was carried out. The data, shown in Table 71 and FIG. 13B, indicate that 165-F3C is restricted by HLA-DRβ1*11.
Donor 3 T-cell line 165-F6C was assayed for proliferation, using mitomycin-treated APC from Donors 3, 5, and 6 that had been incubated in the presence or the absence of 20 μg/mL COP. […]

Experiment [2] relates to Donor 6 GMA-Reactive T-Cell Lines. Briefly: ATP proliferation assay, Donor 6 GMA-reactive T-cell lines. Type of experiment: cell-based, human. The conditions noted are these: Day 35, GMA Lot 001 and COP 10 μg/mL.

For glatiramer acetate [GMA], the “Proliferation with antigen-incubated APC” value was 2237 RLU in experiment [1] (T-cell line 165-B6C, B-LCL Donor 3 (Autologous) DRβ1*1501/DRβ1*11); 8944 RLU in experiment [1] (T-cell line 165-B6C, B-LCL Donor 5 DRβ1*01/DRβ1*11); 322 RLU in experiment [1] (T-cell line 165-B6C, B-LCL Donor 6 DRβ1*1501/DRβ1*13); 13714 RLU in experiment [1] (T-cell line 165-C7C, B-LCL Donor 3 (Autologous) DRβ1*1501/DRβ1*11); 94535 RLU in experiment [1] (T-cell line 165-C7C, B-LCL Donor 5 DRβ1*01/DRβ1*11); 1189 RLU in experiment [1] (T-cell line 165-C7C, B-LCL Donor 6 DRβ1*1501/DRβ1*13). The “Proliferation with antigen-incubated APC” value in experiment [1] (T-cell line 165-D3C, B-LCL Donor 3 (Autologous) DRβ1*1501/DRβ1*11) worked out at 106840 RLU; in experiment [1] (T-cell line 165-D3C, B-LCL Donor 5 DRβ1*01/DRβ1*11) it was 12173 RLU; in experiment [1] (T-cell line 165-D3C, B-LCL Donor 7 DRβ1*1501/DRβ1*03), 149506 RLU; in experiment [1] (T-cell line 165-F3C, B-LCL Donor 3 (Autologous) DRβ1*1501/DRβ1*11) it was 45559 RLU; in experiment [1] (T-cell line 165-F3C, B-LCL Donor 5 DRβ1*01/DRβ1*11), 39565 RLU; in experiment [1] (T-cell line 165-F3C, B-LCL Donor 6 DRβ1*1501/DRβ1*3), 7869 RLU. Besides, the “Proliferation with antigen-incubated APC” value worked out at 12562 RLU in experiment [1] (T-cell line 165-F6C, B-LCL Donor 3 (Autologous) DRβ1*1501/DRβ1*11); 3142 RLU in experiment [1] (T-cell line 165-F6C, B-LCL Donor 5 DRβ1*01/DRβ1*11); 30293 RLU in experiment [1] (T-cell line 165-F6C, B-LCL Donor 6 DRβ1*1501/DRβ1*13).
With glatiramer acetate [COP], the ATP proliferation assay in experiment [2] (Cell line 224-B6-001) worked out at 78357 RLU; in experiment [2] (Cell line 224-B7-001) it was 20586 RLU; in experiment [2] (Cell line 224-B11-001), 27861 RLU; in experiment [2] (Cell line 224-C4-001), 52771 RLU; in experiment [2] (Cell line 224-C11-001) it was 87933 RLU; in experiment [2] (Cell line 224-D2-001), 26027 RLU. Also, the ATP proliferation assay was 68767 RLU in experiment [2] (Cell line 224-D6-001); 233094 RLU in experiment [2] (Cell line 224-E2-001); 137556 RLU in experiment [2] (Cell line 224-E7-001); 114667 RLU in experiment [2] (Cell line 224-F4-001); 227257 RLU in experiment [2] (Cell line 224-G2-001); 229933 RLU in experiment [2] (Cell line 224-G10-001). Moreover, the ATP proliferation assay in experiment [2] (Cell line 224-G11-001) is listed as 91466 RLU.

Values taken from patent US9995734B2, “Human T cell line assay for evaluating the immunologic identity of glatiramer acetate preparations” (Mylan Inc., priority 2013, dated 2018).
